This experiment has as its system K562. As to the kind of experiment: Antiproliferative activity of the paclitaxel-TPCD complex was tested against K562 erythroleukemia after 72 hr at a concentration of 1E-6 mg/mL using MTT cytotoxicity assay. The class given is functional, Homo sapiens. (In general: Formazan colour is commonly taken as a measure of viable cells.)

The molecule `CC(=O)O[C@H]1C(=O)[C@@]2(C)[C@H]([C@H](OC(=O)c3ccccc3)[C@]3(O)C[C@H](OC(=O)[C@H](O)[C@@H](NC(=O)c4ccccc4)c4ccccc4)C(C)=C1C3(C)C)[C@]1(OC(C)=O)CO[C@@H]1C[C@@H]2O` [PACLITAXEL] had an Activity of 57.7%.

(Values after ChEMBL document CHEMBL1145134, “Inclusion complexation and solubilization of paclitaxel by bridged bis(beta-cyclodextrin)s containing a tetraethylenepentaamino spacer” (2003).)
